Laboratory results reported in patent US8481546B2, “CGRP receptor antagonist” (Bristol-Myers Squibb Company, priority 2010, dated 2013).
Read-outs that look alike come from different tables or passages of the source.

Assays:
[1] = system: CGRP-induced increases in marmoset facial blood flow; assay: Marmoset facial blood flow; assay type: in vivo, common marmosets (Callithrix jacchus)
Procedure: To evaluate the in vivo efficacy of novel CGRP receptor antagonists, marmosets receive a series of four intravenous injections of hαCGRP (at 45 min intervals). The first serves as a baseline control, and is followed by subcutaneous delivery of test article. The subsequent three CGRP challenges provide an assessment of functional CGRP antagonism in vivo.
Adult male and female common marmosets (Callithrix jacchus) weighing 350-650 g serve as subjects.
Animals are anesthetized by isoflurane inhalation in an induction chamber (4-5% rapid induction, maintained with 1-2.5%; Solomon et al., 1999). Anesthesia is maintained by delivering a constant supply of air:oxygen (50:50) and isoflurane via intubation and ventilation (with blood gas monitoring). Body temperature is maintained at 38±0.5° C. by placement on an automated temperature controlled surface with rectal probe. A small area of fur (approx. 1.5 cm square) is removed from one or both sides of the face by application of a depilatory cream and/or shaving. Surgical areas are clipped and prepared with betadine. An IV line is placed in the saphenous vein for the administration of test compounds and the CGRP receptor agonist hαCGRP. Additionally this IV line provides for withdrawal of blood samples (max 2.5 ml, 10%) for blood gas monitoring and analysis of compound plasma levels. A solution of 5% dextrose is administered IV in order to maintain blood sugar levels. Anesthesia depth is monitored by measuring blood pressure and heart rate using a non-invasive arm cuff method and a pulse oximeter, respectively. […] Microvascular blood flow is monitored by attaching a self adhesive laser Doppler flow probe to the facial skin. The probe records the number of red blood cells crossing the path of two laser beams, multiplied by their velocity (reported as changes in flux).
Test compounds are administered SC (0.1-0.6 ml/kg) in the nape of the neck. The CGRP-receptor agonist, hαCGRP is delivered IV (1 ml/kg) at a dose of 10 μg/kg.
To assess in vivo efficacy and duration of action, a control increase in facial blood flow is induced by administration of hαCGRP (10 μg/kg IV) 30 min prior (−0.5 hr) to drug delivery. Compound I is then administered at time zero (0 min) and repeat hαCGRP are delivered at 45 min intervals for ˜2 hr (data collected at 0.25, 1 and 1.75 hrs post-dose). Compound I is dosed at 0.003, 0.01 and 0.03 mg/kg, SC. Plasma samples are obtained just before each hαCGRP administration. Following testing, animals are returned to the transport cage which is placed on a temperature controlled surface that keep the animals warm until fully awake and ambulatory. Animals may be tested again after a 14-21 day rest and washout period.

[2] = system: olfactory epithelium (nasal turbinates); assay type: in vivo, rats
Description: Compound I and Compound II were also compared directly for intranasal irritation. […] The only endpoint evaluated in this study was histological evaluation of the nasal turbinates.

[3] = One-week comparative intranasal irritation study in rats: toxicokinetics; conditions: male, rat, in vivo; for Cmax / Tmax / AUC(0-t) / half-life: inhaled or intranasal; for concentration at 24 h: other: intranasal instillation
Procedure: This study was conducted to compare potential nasal irritation of Compound I to Compound III when given intranasally to male rats for 1 week. Male rats (10/group) were instilled intranasally with Compound I or Compound III solutions ([…] in 225 mM succinic acid, 0.02% benzalkonium chloride, 1.25% anhydrous dextrose, pH 5.8-6.2) once daily at a dose volume of 100 μL/nostril. Using this dosing paradigm, fixed doses of 5, 15 or 35 mg of test article were delivered daily. As a consequence, dosages normalized to body weight decreased with time as the rats grew. One control group was given succinate vehicle and a sham control group was given saline by intranasal instillation. Parameters evaluated included clinical observations, body weight, food consumption, toxicokinetics, and histological evaluation of nasal tissues.

[4] = Intravenous exposure in rats (reference for bioavailability); conditions: rat, in vivo, intravenous administration of 1 mg/kg, read-out: AUC0-24 h
[5] = marmoset, efficacy vs. exposure
[6] = 25 μL/nostril, 75 mg/ml, 3.75 mg/rat/day (0.268 mg/cm^2)
[7] = 25 μL/nostril, 175 mg/ml, 8.75 mg/rat/day (0.625 mg/cm^2)
[8] = 100 μL/nostril, 175 mg/ml, 35 mg/rat/day (2.500 mg/cm^2)
[9] = 5 mg, intranasal 5 mg (0.357 mg/cm^2) once daily, Day 0
[10] = 5 mg, intranasal 5 mg (0.357 mg/cm^2) once daily, Day 6
[11] = 15 mg, intranasal 15 mg (1.07 mg/cm^2) once daily, Day 0
[12] = 15 mg, intranasal 15 mg (1.07 mg/cm^2) once daily, Day 6
[13] = 35 mg, intranasal 35 mg (2.50 mg/cm^2) once daily, Day 0
[14] = 35 mg, intranasal 35 mg (2.50 mg/cm^2) once daily, Day 6

Cc1cc(C[C@@H](NC(=O)N2CCC(c3cc4ccccc4[nH]c3=O)CC2)C(=O)N2CCN(C3CCN(C)CC3)CC2)cc2cn[nH]c12 [Compound I, (R)—N-(3-(7-methyl-1H-indazol-5-yl)-1-(4-(1-methylpiperidin-4-yl)piperazin-1-yl)-1-oxopropan-2-yl)-4-(2-oxo-1,2-dihydroquinolin-3-yl)piperidine-1-carboxamide]
inhibition of CGRP-induced increases in facial blood flow ([1]; 0.003 mg/kg SC, at 0.25 hr): 20% | inhibition of CGRP-induced increases in facial blood flow ([1]; 0.003 mg/kg SC, later test times): no effect | inhibition of CGRP-induced increases in facial blood flow ([1]; 0.01 mg/kg SC, across all post-dose test times): 35-40% | inhibition of CGRP-induced increases in facial blood flow ([1]; 0.03 mg/kg SC, at 0.25, 1 and 1.75 hr post-dose): 53-80% | plasma levels associated with maximal efficacy [1, 5]: ≥ 25 nM | plasma levels associated with significant in vivo efficacy [1, 5]: ≥ 8 nM | Olfactory epithelial toxicity, number of animals with severity None ([2]; 12.5 μL/nostril, 75 mg/ml, 1.875 mg/rat/day (0.134 mg/cm^2)): 5 | Olfactory epithelial toxicity, number of animals with severity None ([2]; 12.5 μL/nostril, 175 mg/ml, 4.375 mg/rat/day (0.313 mg/cm^2)): 5 | Olfactory epithelial toxicity, number of animals with severity Minimal [2, 6]: 3 | Olfactory epithelial toxicity, number of animals with severity None [2, 6]: 2 | Olfactory epithelial toxicity, number of animals with severity Minimal [2, 7]: 1 | Olfactory epithelial toxicity, number of animals with severity None [2, 7]: 4 | Olfactory epithelial toxicity, number of animals with severity Slight ([2]; 100 μL/nostril, 75 mg/ml, 15 mg/rat/day (1.071 mg/cm^2)): 5 | Olfactory epithelial toxicity, number of animals with severity Mild [2, 8]: 4 | Olfactory epithelial toxicity, number of animals with severity Slight [2, 8]: 1 | Cmax [3, 9]: 330 nM | Tmax [3, 9]: 0.5 h | AUC(0-t) ([3]; 5 mg, intranasal 5 mg (0.357 mg/cm^2) once daily, Day 0, read-out: Composite AUC0-24 h): 1.6 µM·h | half-life ([3]; 5 mg, intranasal 5 mg (0.357 mg/cm^2) once daily, Day 0, read-out: Mean T1/2 (converted)): 7.1 h | Cmax [3, 10]: 660 nM | Tmax [3, 10]: 1 h | AUC(0-t) ([3]; 5 mg, intranasal 5 mg (0.357 mg/cm^2) once daily, Day 6, read-out: Composite AUC0-24 h): 2.6 µM·h | half-life ([3]; 5 mg, intranasal 5 mg (0.357 mg/cm^2) once daily, Day 6, read-out: Mean T1/2 (converted)): 5.6 h | Cmax [3, 11]: 2200 nM | Tmax [3, 11]: 1 h | AUC(0-t) ([3]; 15 mg, intranasal 15 mg (1.07 mg/cm^2) once daily, Day 0, read-out: Composite AUC0-24 h): 4.6 µM·h | half-life ([3]; 15 mg, intranasal 15 mg (1.07 mg/cm^2) once daily, Day 0, read-out: Mean T1/2 (converted)): 5.1 h | Cmax [3, 12]: 830 nM | Tmax [3, 12]: 0.5 h | AUC(0-t) ([3]; 15 mg, intranasal 15 mg (1.07 mg/cm^2) once daily, Day 6, read-out: Composite AUC0-24 h): 5.2 µM·h | half-life ([3]; 15 mg, intranasal 15 mg (1.07 mg/cm^2) once daily, Day 6, read-out: Mean T1/2 (converted)): 6.7 h | Cmax [3, 13]: 1500 nM | Tmax [3, 13]: 2 h | AUC(0-t) ([3]; 35 mg, intranasal 35 mg (2.50 mg/cm^2) once daily, Day 0, read-out: Composite AUC0-24 h): 7.9 µM·h | Cmax [3, 14]: 1200 nM | Tmax [3, 14]: 1 h | AUC(0-t) ([3]; 35 mg, intranasal 35 mg (2.50 mg/cm^2) once daily, Day 6, read-out: Composite AUC0-24 h): 5.4 µM·h | half-life ([3]; 35 mg, intranasal 35 mg (2.50 mg/cm^2) once daily, Day 6, read-out: Mean T1/2 (converted)): 6 h | concentration at 24 h ([3]; 5 mg, intranasal 5 mg (0.357 mg/cm^2) once daily, Day 0, read-out: Mean C24 h): 22 nM | concentration at 24 h ([3]; 5 mg, intranasal 5 mg (0.357 mg/cm^2) once daily, Day 6, read-out: Mean C24 h): 15 nM | concentration at 24 h ([3]; 15 mg, intranasal 15 mg (1.07 mg/cm^2) once daily, Day 0, read-out: Mean C24 h): 17 nM | concentration at 24 h ([3]; 15 mg, intranasal 15 mg (1.07 mg/cm^2) once daily, Day 6, read-out: Mean C24 h): 59 nM | concentration at 24 h ([3]; 35 mg, intranasal 35 mg (2.50 mg/cm^2) once daily, Day 0, read-out: Mean C24 h): 120 nM | concentration at 24 h ([3]; 35 mg, intranasal 35 mg (2.50 mg/cm^2) once daily, Day 6, read-out: Mean C24 h): 36 nM | AUC(0-t) [4]: 7.7 µM·h
